Where two headings read alike, the source gives them in different places.
What was measured:
EP300 (P300(1048-1664)) = biological target: T1, EP300 (P300(1048-1664)) (Homo sapiens, UniProt Q09472); assay: Biochemical assay for EP300, SAMDI; conditions: read-out: EP300 Biochemistry IC50
T1 construct: P300(1048-1664)
T1 sequence (Q09472 1048-1664): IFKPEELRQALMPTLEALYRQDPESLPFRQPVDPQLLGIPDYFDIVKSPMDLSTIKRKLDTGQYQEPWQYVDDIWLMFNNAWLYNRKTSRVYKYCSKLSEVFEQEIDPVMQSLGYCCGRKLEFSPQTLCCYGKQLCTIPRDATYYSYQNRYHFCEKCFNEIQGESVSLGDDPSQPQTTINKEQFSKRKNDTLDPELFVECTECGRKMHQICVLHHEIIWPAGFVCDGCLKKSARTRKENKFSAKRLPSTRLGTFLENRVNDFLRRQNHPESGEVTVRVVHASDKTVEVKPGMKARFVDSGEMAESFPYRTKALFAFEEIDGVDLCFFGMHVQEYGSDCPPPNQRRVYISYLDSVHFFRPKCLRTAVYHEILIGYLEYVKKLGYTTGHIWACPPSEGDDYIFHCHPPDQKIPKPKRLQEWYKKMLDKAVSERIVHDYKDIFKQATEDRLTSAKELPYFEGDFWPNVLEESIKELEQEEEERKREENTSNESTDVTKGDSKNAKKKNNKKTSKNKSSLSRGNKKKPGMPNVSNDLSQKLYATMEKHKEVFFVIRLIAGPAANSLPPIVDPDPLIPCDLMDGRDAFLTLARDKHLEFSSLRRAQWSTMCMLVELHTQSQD
Source text: The following example describes materials and methods relating to a biochemical assay for EP300. IC50 values (micromolar (μM)) are summarized in Table 1, Table 2, and Table 3 under the column labeled: “EP300 Biochemistry IC50 (micromolar).”

CREBBP (1084-1701) = biological target: T2, CREBBP (1084-1701) (Homo sapiens, UniProt Q92793); assay: Biochemical assay for CREBBP (1084-1701), SAMDI; conditions: read-out: CREBBP Biochemistry IC50
T2 construct: measured in the following biochemical assay using CREBBP (1084-1701); purchased
T2 sequence (Q92793 1084-1701): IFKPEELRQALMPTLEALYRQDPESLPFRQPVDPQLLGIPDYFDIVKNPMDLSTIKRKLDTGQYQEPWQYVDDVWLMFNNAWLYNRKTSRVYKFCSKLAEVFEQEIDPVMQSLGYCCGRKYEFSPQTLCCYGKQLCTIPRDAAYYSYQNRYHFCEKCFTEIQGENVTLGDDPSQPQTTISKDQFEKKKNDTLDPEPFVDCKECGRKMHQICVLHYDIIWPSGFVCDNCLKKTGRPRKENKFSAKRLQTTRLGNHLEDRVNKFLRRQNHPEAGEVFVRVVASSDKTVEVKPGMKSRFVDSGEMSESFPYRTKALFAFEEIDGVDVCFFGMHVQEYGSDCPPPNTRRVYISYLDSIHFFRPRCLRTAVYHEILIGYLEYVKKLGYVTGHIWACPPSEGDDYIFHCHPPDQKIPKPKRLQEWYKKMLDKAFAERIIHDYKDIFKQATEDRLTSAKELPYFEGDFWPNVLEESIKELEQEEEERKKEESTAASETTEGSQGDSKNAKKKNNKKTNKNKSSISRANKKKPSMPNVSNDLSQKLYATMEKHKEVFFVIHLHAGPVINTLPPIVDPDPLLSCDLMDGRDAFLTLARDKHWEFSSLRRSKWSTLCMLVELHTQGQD
Procedure, shortened: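 CREBBP (1084-1701) preincubated with compound 30 min at RT, then substrate mix (biotin-H3 11-25 K14R/K23R peptide, acetyl-CoA) added for 30 min at RT. Reaction stopped with formic acid, neutralised with sodium bicarbonate. Peptide acetylation read by SAMDI mass spectrometry to derive IC50.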

647V cells = assay: High throughput proliferation (HTP) assay; type: cell-based; conditions: read-out: CREBBP HTP IC50
Procedure, shortened: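 Exponentially growing 647V cells in DMEM with 15% FBS were treated in triplicate with increasing compound concentrations at 37° C, 5% CO2. Viable cell number was read by CellTiter-Glo luminescence on day 7; IC50 in micromolar.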

[1] = system: H3K18Ac in HB-CLS-2 cells; assay: H3K18AC in-cell western (ICW) assay; type: cell-based; conditions: read-out: CREBBP ICW IC50
Procedure, shortened: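 HB-CLS-2 cells seeded 16–24 hours before 2 hr compound treatment at 37° C, 5% CO2, then methanol-fixed. H3K18Ac detected with rabbit monoclonal primary (overnight, 4° C) and 800CW anti-rabbit secondary; DRAQ5 stained DNA. Plates imaged at 700 and 800 nm for integrated intensity; IC50 in μM.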

[2] = Homo sapiens, 647-V, high throughput proliferation
[3] = Homo sapiens, 647-V, high throughput proliferation, 647V cells
[4] = H3K18Ac in-cell western, HB-CLS-2 cells

Structure (SMILES)	IC50 (EP300 (P300(1048-1664)); EP300, SAMDI)	IC50 (CREBBP (1084-1701); SAMDI)	IC50 ([1]; H3K18Ac in-cell western)	IC50 [1, 4]	IC50 (EP300 (P300(1048-1664)); P300(1048-1664), Peptide #233, Ac-CoA, SAMDI mass spectrometry)	IC50 (CREBBP (1084-1701); Peptide #233, Acetyl-CoA, SAMDI mass spectrometry)	IC50 ([1]; 2 h, H3K18Ac in HB-CLS-2 cells, 2 hrs compound incubation)	IC50 (647V cells; [2])	IC50 (647V cells; [3])	IC50 (647V cells; Homo sapiens, 647-V, 168 h, 647V cells, day 7, CellTiter-Glo)	IC50 (647V cells; high throughput proliferation)
CCn1ncc(CN(C)C(=O)c2nc(-c3ccc(OCCN(C)C(=O)OC(C)(C)C)c(Cl)c3)nc3ccc(Cl)cc23)c1C [Compound 151]	2800 nM	2200 nM	8800 nM					3200 nM			
CCn1ncc(CN(C)C(=O)c2cc(-c3ccc(NCCNC)c(C)n3)nc3ccc(C4CC4)cc23)c1C [Compound 449]	51.1 nM	49.8 nM	221 nM					135 nM			
CCn1ncc(CN(C)C(=O)c2nc(-c3cc(C(F)(F)F)c4[nH]nc(NC)c4c3)nc3ccc(Cl)cc23)c1C [Compound 623]	28.3 nM	43.9 nM	230 nM					711 nM			
CCn1ncc(CN(C)C(=O)c2nc(-c3ccc(OCCCNC(=O)OC(C)(C)C)c(C)c3)nc3ccc(Cl)cc23)c1C [Compound 147]	7900 nM	470 nM	7000 nM								3100 nM
CCn1ncc(CN(C)C(=O)c2nc(-c3ccc(OCCNC)cc3Cl)nc3ccc(Cl)cc23)c1C [Compound 23]	50 nM	46 nM	190 nM					82 nM			
CCc1nc(-c2cc(C(=O)N(C)Cc3cnn(CC)c3C)c3cc(COC)ccc3n2)ccc1NCCNC [Compound 595]	59.9 nM	51.6 nM	145 nM					99.1 nM			
CNCCNc1ccc(-c2cc(C(=O)N(C)Cc3onc(C4CC4)c3C)c3cc(Cl)ccc3n2)nc1C [Compound 599]	1750 nM	518 nM	1600 nM					1260 nM			
CCn1ncc(CN(C)C(=O)c2cc(-c3ccc(NC(=O)CNC)c(C)n3)nc3ccc(Cl)cc23)c1C [Compound 74]	1100 nM	2100 nM	1000 nM					1500 nM			

The next lines start with results.

IC50 (EP300 (P300(1048-1664)); EP300, SAMDI)	IC50 (CREBBP (1084-1701); SAMDI)	IC50 ([1]; H3K18Ac in-cell western)	IC50 [1, 4]	IC50 (EP300 (P300(1048-1664)); P300(1048-1664), Peptide #233, Ac-CoA, SAMDI mass spectrometry)	IC50 (CREBBP (1084-1701); Peptide #233, Acetyl-CoA, SAMDI mass spectrometry)	IC50 ([1]; 2 h, H3K18Ac in HB-CLS-2 cells, 2 hrs compound incubation)	Structure (SMILES)	IC50 (647V cells; [2])	IC50 (647V cells; [3])	IC50 (647V cells; Homo sapiens, 647-V, 168 h, 647V cells, day 7, CellTiter-Glo)	IC50 (647V cells; high throughput proliferation)
41000 nM	50000 nM		20000 nM				CCn1ncc(CN(C)C(=O)c2cc(-c3cn[nH]c3N)nc3ccc(Cl)cc23)c1C [Compound 227]		20000 nM		
				9.1 nM	28.1 nM	86.6 nM	CCc1ncc(CN(C)C(=O)c2cc(-c3ccc(NC4CCN(C)C4)c(C)n3)nc3ccc(Cl)cc23)n1C (centres unmarked) [Compound 642]			33.4 nM	
20.3 nM	48.7 nM	174 nM					CCn1ncc(CN(C)C(=O)c2cc(-c3ccc(NC4CN(CC(F)(F)F)C4)c(C)n3)nc3ccc(Cl)cc23)c1C [Compound 603]	253 nM			
44000 nM	30000 nM		20000 nM				CCn1ncc(CN(C)C(=O)c2nc(-c3ccc(OCCNC)nn3)nc3ccc(Cl)cc23)c1C [Compound 414]		20000 nM		
3.1 nM	9.75 nM	29.1 nM					CCc1noc(CN(C)C(=O)c2nc(-c3cc4c(NC)[nH]nc4cc3C)nc3ccc(Cl)cc23)c1C [Compound 615]	19.5 nM			
6.5 nM	19.1 nM	58.2 nM					CCc1ncc(CN(C)C(=O)c2cc(-c3ccc(NC4CN(C)C4)c(C)n3)nc3ccc(Cl)cc23)n1C [Compound 561]	22.8 nM			
221 nM	44.5 nM	273 nM					CCn1ncc(CN(C)C(=O)c2cc(-c3ccc(NCCNC)c(OC)c3)nc3ccc(Cl)cc23)c1C [Compound 584]	165 nM			
15000 nM	8400 nM	13000 nM					CCn1ncc(CN(C)C(=O)c2nc(-c3cc(C(=O)NCCN4CCCC4)on3)nc3ccc(Cl)cc23)c1C [Compound 169]	6700 nM			
≥ 50000 nM	≥ 50000 nM	20000 nM					CNCCNc1ccc(-c2cc(C(=O)N(C)Cc3cn[nH]c3C)c3cc(Cl)ccc3n2)nc1C [Compound 564]	9530 nM			
